The source made the active and inactive calls.
What was measured:
[1] = control 3'UTR Renilla luciferase suppression, dose response, counter-screen for Shn3 inhibitor project, cell-based, Clone20-Shn3RL, cherry-picked (AID 624133); type: functional
[2] = Shn3 3'UTR reporter inhibitors, dose response, cell-based, Clone20 osteoblasts, firefly luciferase, cherry-picked (AID 624132); type: functional;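 note: firefly luciferase luminescence from reporter carrying the Shn3 3'UTR in osteoblasts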
[3] = biological target: T1, Ubiquitin-conjugating enzyme E2 N (Homo sapiens, UniProt P61088); type: functional;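 note: Dose-response confirmation in a TR-FRET assay detecting UBC13-driven polyubiquitin chain formation, inhibition measured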
T1 sequence (P61088 whole entry): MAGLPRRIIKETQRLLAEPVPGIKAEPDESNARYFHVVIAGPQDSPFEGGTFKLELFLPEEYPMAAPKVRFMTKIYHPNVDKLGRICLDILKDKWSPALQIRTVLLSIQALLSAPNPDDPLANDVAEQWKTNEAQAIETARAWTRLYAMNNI

[4] = HepG2 cell cytotoxicity, dose response, cytotoxicity control for Shn3 inhibitor project, CellTiter-Glo, cherry-picked (AID 624134); type: functional, cell-based
[5] = growth suppression of beta-catenin-knockout colon cells, dose response, cell-based, HCT116, human colon tumor (AID 1045); type: functional;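 note: HCT116 colon tumor cells with beta catenin knocked out; cells exposed to compound for 60 hours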
[6] = growth suppression of PTEN-null colon cells, dose response, cell-based, HCT116 PTEN knockout (AID 1047); type: functional;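 note: HCT116 colon tumor cells with PTEN knocked out; cells exposed to compound for 60 hours before readout; potency for loss of cell viability measured by luminescence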
[7] = biological target: Cytochrome P450 2C19 (Homo sapiens, UniProt P33261); assay: Cytochrome panel assay with activity outcomes. Panel member name: p450-cyp2c19 Compounds with AC50 equal or less than 10 uM are considered active; type: functional; conditions: read-out: AC50
[8] = biological target: T2, Cytochrome P450 1A2 (Homo sapiens, UniProt P05177);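 note: PubChem cytochrome P450 panel assay, CYP1A2 panel member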
T2 sequence (P05177 whole entry): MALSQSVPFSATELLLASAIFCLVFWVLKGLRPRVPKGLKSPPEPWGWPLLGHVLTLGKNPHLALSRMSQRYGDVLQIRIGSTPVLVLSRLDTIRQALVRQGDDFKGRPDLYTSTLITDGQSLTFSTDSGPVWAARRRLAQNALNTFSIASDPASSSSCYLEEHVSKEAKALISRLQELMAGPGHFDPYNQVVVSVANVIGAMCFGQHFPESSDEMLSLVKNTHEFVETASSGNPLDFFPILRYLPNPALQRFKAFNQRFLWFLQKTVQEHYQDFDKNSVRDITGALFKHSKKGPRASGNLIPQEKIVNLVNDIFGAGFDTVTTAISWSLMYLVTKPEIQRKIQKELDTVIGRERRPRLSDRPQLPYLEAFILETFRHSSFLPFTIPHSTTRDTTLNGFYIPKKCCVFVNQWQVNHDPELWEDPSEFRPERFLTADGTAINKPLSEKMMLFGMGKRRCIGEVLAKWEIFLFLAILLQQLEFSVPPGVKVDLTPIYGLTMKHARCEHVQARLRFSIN

[9] = biological target: Cytochrome P450 3A4 (Homo sapiens, UniProt P08684);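 note: CYP3A4 tested as one member of a cytochrome P450 panel screen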
[10] = biological target: Cytochrome P450 2C9 (Homo sapiens, UniProt P11712)
[11] = biological target: T3, Protein skinhead-1 (Caenorhabditis elegans, UniProt P34707); type: functional
T3 sequence (P34707 whole entry): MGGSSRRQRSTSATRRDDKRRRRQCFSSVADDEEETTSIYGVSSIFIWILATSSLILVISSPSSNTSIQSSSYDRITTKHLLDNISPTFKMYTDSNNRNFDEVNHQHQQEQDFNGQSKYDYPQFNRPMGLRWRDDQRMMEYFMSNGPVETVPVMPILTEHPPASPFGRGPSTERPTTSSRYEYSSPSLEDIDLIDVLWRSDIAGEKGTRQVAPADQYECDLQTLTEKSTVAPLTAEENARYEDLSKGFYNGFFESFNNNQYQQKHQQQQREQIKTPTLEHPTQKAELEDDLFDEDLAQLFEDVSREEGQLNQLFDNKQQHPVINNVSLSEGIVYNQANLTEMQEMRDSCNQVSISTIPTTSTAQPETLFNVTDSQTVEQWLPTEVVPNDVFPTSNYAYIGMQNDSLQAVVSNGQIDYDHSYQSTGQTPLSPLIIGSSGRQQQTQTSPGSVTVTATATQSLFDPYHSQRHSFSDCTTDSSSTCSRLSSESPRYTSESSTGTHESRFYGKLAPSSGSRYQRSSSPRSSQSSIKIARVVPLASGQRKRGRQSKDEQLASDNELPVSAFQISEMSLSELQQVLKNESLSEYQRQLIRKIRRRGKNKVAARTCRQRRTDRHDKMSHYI

[12] = P. falciparum Dd2 growth inhibitors, dose response, SYBR Green, cherry-picked samples (AID 1159567); type: functional, cell-based
[13] = intracellular Trypanosoma cruzi inhibitors in host cells – cell-based, plate reader, cherry-pick samples, set 3, dose response (AID 651818); type: functional;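 note: compounds incubated with infected cells for about four days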
[14] = biological target: Paired box protein Pax-8 (Homo sapiens, UniProt Q06710); assay: inhibitors of PAX8-driven TPO luciferase reporter, dose response, RMG-I cells, cherry-pick (AID 687027); type: functional, cell-based;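 note: luciferase reporter driven by Pax8 target thyroperoxidase promoter measured by SteadyGlo luminescence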
Paired box protein Pax-8, sequence (Q06710 whole entry): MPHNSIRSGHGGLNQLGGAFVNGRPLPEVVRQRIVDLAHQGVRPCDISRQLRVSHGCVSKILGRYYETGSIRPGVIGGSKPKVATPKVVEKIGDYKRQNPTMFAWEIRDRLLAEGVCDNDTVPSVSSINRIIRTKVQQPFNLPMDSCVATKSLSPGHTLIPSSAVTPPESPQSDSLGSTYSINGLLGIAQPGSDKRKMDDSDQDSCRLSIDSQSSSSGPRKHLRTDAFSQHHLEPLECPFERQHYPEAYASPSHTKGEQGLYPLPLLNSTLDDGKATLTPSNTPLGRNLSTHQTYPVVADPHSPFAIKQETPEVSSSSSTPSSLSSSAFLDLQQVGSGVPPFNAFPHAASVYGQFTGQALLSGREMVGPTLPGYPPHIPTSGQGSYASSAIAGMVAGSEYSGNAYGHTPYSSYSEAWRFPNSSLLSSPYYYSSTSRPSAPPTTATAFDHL

Cytochrome P450 3A4, sequence (P08684 whole entry): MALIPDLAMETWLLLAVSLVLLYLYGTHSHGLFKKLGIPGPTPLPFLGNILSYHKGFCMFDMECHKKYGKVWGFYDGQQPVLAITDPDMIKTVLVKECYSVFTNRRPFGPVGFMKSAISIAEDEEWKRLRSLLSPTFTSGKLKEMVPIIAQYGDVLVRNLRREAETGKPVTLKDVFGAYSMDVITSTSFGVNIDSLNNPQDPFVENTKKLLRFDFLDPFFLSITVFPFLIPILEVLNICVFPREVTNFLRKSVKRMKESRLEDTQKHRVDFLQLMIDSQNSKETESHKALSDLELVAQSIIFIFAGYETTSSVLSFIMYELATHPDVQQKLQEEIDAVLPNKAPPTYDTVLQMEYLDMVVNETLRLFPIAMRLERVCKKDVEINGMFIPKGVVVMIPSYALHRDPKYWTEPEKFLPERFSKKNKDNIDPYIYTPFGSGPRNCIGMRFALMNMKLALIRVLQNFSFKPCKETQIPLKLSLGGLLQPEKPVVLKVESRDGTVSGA
Cytochrome P450 2C9, sequence (P11712 whole entry): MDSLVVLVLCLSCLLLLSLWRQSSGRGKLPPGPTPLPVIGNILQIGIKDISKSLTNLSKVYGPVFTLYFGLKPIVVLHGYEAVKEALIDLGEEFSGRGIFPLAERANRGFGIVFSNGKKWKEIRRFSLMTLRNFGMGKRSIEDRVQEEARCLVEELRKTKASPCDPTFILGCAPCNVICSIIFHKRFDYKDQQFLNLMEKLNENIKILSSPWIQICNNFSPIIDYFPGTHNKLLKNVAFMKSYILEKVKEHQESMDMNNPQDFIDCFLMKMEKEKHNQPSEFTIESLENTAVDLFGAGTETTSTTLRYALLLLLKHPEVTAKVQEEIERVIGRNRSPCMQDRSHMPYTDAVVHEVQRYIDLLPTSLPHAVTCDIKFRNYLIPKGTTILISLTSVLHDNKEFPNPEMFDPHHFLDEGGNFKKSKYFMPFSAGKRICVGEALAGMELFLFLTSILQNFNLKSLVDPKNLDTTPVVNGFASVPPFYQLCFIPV
Cytochrome P450 2C19, sequence (P33261 whole entry): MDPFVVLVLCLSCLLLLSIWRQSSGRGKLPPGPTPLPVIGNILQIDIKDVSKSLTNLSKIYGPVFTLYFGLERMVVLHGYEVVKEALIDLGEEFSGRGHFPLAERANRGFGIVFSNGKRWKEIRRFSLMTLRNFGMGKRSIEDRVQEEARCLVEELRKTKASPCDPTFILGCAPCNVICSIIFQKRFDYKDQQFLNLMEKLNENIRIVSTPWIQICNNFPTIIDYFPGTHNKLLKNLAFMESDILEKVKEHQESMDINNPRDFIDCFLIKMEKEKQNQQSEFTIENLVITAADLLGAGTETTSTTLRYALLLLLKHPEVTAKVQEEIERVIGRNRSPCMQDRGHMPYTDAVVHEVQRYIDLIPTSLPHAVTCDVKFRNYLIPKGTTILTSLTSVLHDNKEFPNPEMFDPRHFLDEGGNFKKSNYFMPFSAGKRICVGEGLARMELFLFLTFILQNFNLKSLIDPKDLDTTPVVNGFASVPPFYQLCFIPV

NC1=NC[C@H](c2ccccc2)N1CCCCC1CCCCC1
AC50 [1]: 3.11 µM (active)
AC50 [2]: 4.23 µM (active)
IC50 [3]: > 20 µM (inactive)
AC50 [4]: 43.1 µM (active)

O=C(C1=C[C@@H](c2coc3ccccc3c2=O)C[C@@H](OCc2ccc(CO)cc2)O1)N1CCN(Cc2ccc3c(c2)OCO3)CC1
IC50 [3]: > 20 µM (inactive)

O=C(Oc1ccccc1/C=C\C(=O)c1cc2ccccc2o1)c1cccc(F)c1
EC50 [5]: 8.35 µM (active)
EC50 [6]: 8.35 µM (active)

COC(=O)[C@@]12CCCCN1[C@H](c1ccc(-c3cc(C(C)=O)cs3)c(OC)c1)[C@H]1C(=O)N(C)C(=O)[C@H]12
IC50 [3]: > 20 µM (inactive)

O=C(NC1CCCCC1)C12CC3CC(C1)CC(n1cncn1)(C3)C2
AC50 [7]: 28.2 µM (inconclusive)
AC50 [8]: 28.2 µM (inconclusive)
AC50 [9]: 3.55 µM (inconclusive)
AC50 [10]: 5.01 µM (inconclusive)

O=C(/C=C/c1ccc(-c2ccccc2[N+](=O)[O-])o1)c1ccc(F)cc1
EC50 [5]: 35.7 µM (active)
EC50 [6]: 28.8 µM (active)

CC(C)CN(Cc1c(O)ccc2c3c(c(=O)oc12)CCC3)CC(C)C
AC50 [7]: 20 µM (inconclusive)
AC50 [8]: 15.8 µM (inconclusive)
AC50 [9]: 17.8 µM (inconclusive)

Cn1c(-c2ccc(CN3CCCCC3)o2)nc2ccccc21
IC50 [11]: > 100 µM (inactive)
AC50 [8]: 12.6 µM (inconclusive)
AC50 [9]: 28.2 µM (inconclusive)
AC50 [10]: 2 µM (inconclusive)

Oc1ccc(C[C@@H]2CNCCN2CCCCC2CCCCC2)cc1
IC50 [3]: > 20 µM (inactive)

CC(C)C[C@@H]1CN=C(N)N1C[C@@H]1CCCN1C[C@@H](C(C)C)N1C[C@@H](Cc2ccccc2)N(CCCC2CCCC2)C1=N
IC50 [3]: > 20 µM (inactive)

C[C@@H]1CN([C@@H](C)CO)C(=O)c2c(c3ccccc3n2C)-c2ccccc2CO[C@H]1CN(C)S(=O)(=O)c1ccc(C(F)(F)F)cc1
AC50 [12]: 3.02 µM (active)

O=C(CCCCCCC(=O)Nc1ccccc1O)N/N=C/c1ccc(OCc2ccccc2)cc1O
AC50 [13]: 1.16 µM (active)

C[C@H](CO)N1C[C@H](C)[C@H](CN(C)Cc2ccc(C(=O)Nc3ccccc3N)cc2)Oc2ccc(NS(=O)(=O)c3cccs3)cc2CC1=O
AC50 [13]: 4.59 µM (active)

C[C@H](CO)N1C[C@H](C)[C@@H](CN(C)Cc2ccc(C(=O)Nc3ccccc3N)cc2)Oc2c(NC(=O)Nc3ccc(F)cc3)cccc2C1=O
AC50 [13]: 4.17 µM (active)

C[C@H](CO)N1C[C@H](C)[C@H](CN(C)Cc2ccc(C(=O)Nc3ccccc3N)cc2)Oc2ccc(NC(=O)Nc3ccc(F)cc3)cc2CC1=O
AC50 [13]: 2.26 µM (active)

C[C@@H]1CN([C@H](C)CO)C(=O)c2cccc(NC(=O)Nc3ccc(C(F)(F)F)cc3)c2O[C@H]1CN(C)C(=O)Nc1ccc(C(F)(F)F)cc1
AC50 [13]: 6.75 µM (active)

C[C@H](CO)N1C[C@H](C)[C@H](CN(C)Cc2ccc(-c3ccccc3)cc2)Oc2ccc(NC(=O)Nc3ccc(C(F)(F)F)cc3)cc2C1=O
AC50 [13]: 5.37 µM (active)

C[C@@H]1CCCCO[C@@H](CN(C)Cc2ccccc2)[C@@H](C)CN([C@H](C)CO)C(=O)c2cc(NC(=O)Nc3ccc(C(F)(F)F)cc3)ccc2O1
AC50 [13]: 1.64 µM (active)
AC50 [14]: 10.1 µM (active)

C[C@@H]1CN([C@H](C)CO)C(=O)Cc2cc(NS(=O)(=O)c3ccc(Cl)cc3)ccc2O[C@H]1CN(C)Cc1ccc(C(=O)Nc2ccccc2N)cc1
AC50 [13]: 4.53 µM (active)

C[C@H](CO)N1C[C@H](C)[C@@H](CN(C)Cc2ccc(-c3ccccc3)cc2)Oc2c(NC(=O)NC3CCCCC3)cccc2C1=O
AC50 [13]: 4.23 µM (active)

C[C@@H]1CCCCO[C@H](CN(C)Cc2ccc(Cl)c(Cl)c2)[C@@H](C)CN([C@H](C)CO)C(=O)c2cc(NS(=O)(=O)c3ccc(Cl)cc3)ccc2O1
AC50 [13]: 4.22 µM (active)

COc1ccc(CN(C)C[C@@H]2Oc3ccc(NS(=O)(=O)c4ccc(Cl)cc4)cc3CC(=O)N([C@H](C)CO)C[C@H]2C)cc1
AC50 [13]: 2.61 µM (active)

Cc1ccccc1S(=O)(=O)N1[C@H](CO)[C@@H](c2ccc(C#CC3CCCCC3)cc2)[C@@H]1C#N
AC50 [12]: 4.12 µM (active)

OC[C@@H]1Nc2ccc(C#Cc3cccc(F)c3)cc2[C@@H]2NCC[C@H]12
AC50 [12]: 2.83 µM (active)

N#C[C@H]1[C@@H](c2ccc(C#CC3CC3)cc2)[C@H](CO)N1S(=O)(=O)c1ccccc1
AC50 [12]: 4.18 µM (active)

CCCNC(=O)N1CC2(CCN(C(=O)CN(C)C)CC2)c2c(n(C)c3cc(OC)ccc23)[C@H]1CO
AC50 [12]: 4.6 µM (active)

COc1ccc(CN2C[C@@H](C)[C@H](OC)CN(C)C(=O)c3cc(NC(=O)c4nc5ccccc5s4)ccc3OC[C@H]2C)cc1
AC50 [12]: 4.08 µM (active)

Cc1ccc(/C=C/C(=O)c2ccccc2)cc1
EC50 [5]: 20.1 µM (active)
EC50 [6]: 22.6 µM (active)
